We go through one compound from US5422373A, “Anti-atherosclerotic aryl compounds” (Burroughs Wellcome Co., priority 1990, dated 1995).

For assay [1], the target named is T1, ACAT (Rattus norvegicus, UniProt Q7TQM4).
T1 construct: using hepatic microsomes as the source of both ACAT and cholesterol; from tissue; host or cells: liver microsomes of male CD rats fed a 0.8% cholesterol/0.2% cholic acid diet
T1 sequence (Q7TQM4 1-524): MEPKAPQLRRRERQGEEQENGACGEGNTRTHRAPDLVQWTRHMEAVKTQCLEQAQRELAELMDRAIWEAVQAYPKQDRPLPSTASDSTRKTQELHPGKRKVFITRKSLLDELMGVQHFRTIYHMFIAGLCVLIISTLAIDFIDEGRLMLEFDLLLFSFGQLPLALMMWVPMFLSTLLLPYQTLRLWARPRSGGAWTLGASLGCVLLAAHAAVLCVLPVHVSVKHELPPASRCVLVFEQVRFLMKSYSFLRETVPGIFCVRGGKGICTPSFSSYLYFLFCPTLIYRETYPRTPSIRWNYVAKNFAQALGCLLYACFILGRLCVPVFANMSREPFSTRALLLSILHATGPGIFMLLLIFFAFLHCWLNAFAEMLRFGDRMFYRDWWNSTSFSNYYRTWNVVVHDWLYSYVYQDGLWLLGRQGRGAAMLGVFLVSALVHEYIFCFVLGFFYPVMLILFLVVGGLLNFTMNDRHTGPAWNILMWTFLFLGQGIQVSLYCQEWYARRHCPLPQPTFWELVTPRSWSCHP
Nature of the assay: In vitro assay for the inhibition of ACAT activity. Conditions: hepatic microsomes of cholesterol/cholic acid fed male CD rats; [14C]oleoyl-CoA 25 μM. Format: biochemical. The protocol: (i) In vitro assay for the inhibition of ACAT activity
ACAT activity was determined as described by Ross et al by the incorporation of [^14 C]oleoyl-CoA into cholesterol [^14 C]oleate using hepatic microsomes as the source of both ACAT and cholesterol. Microsomes were prepared from the livers of male CD rats fed a 0.8% cholesterol/0.2% cholic acid diet 3.5 days before sacrifice. Various concentrations of a test compound were preincubated with a 0.5mg/ml microsomal suspension and after 15 minutes a 50 μg aliquot was removed and incubated with 25 μM of [^14 C]-enriched oleoyl-CoA for 4 minutes. The reaction was terminated by the addition of 1 ml of ethanol and 4ml of hexane. After shaking, the hexane layer was removed and evaporated to dryness. The hexane extract was then reconstituted in 150 μl of HPLC solvent and injected on to a B&J OD5 Reverse Phase C18 column using an isocratic mobile phase of acetonitrile: isopropanol:heptane (50:40:10) in 0.5% acetic acid at a flow rate of 1.0 ml/min. The product of the reaction, [14C]oleoyl cholesterol, was measured using a Flow One radiometric detector.
The ACAT IC50 value for each compound was determined from a plot of % inhibition from control vs inhibitor concentration.

The subject of assay [2] is cholesterol-cholic acid fed rats. Nature of the assay: Determination of hypolipidaemic activity in cholesterol-cholic acid fed rats. The format is in vivo, rat. Conditions: male Sprague-Dawley rats on 0.4% cholesterol, 0.2% cholic acid diet, serum on fourth day. From the text: (ii) Determination of hypolipidaemic activity in cholesterol-cholic acid fed rats
Male Sprague-Dawley rats (CD, Charles River) each weighing 200-300 g were used. Hypercholesterolemia was induced in the rats by administration of a diet enriched to 0.4% cholesterol, 0.2% cholic acid. Prior to the administration of the diet, blood samples were collected under halothane anesthesia by cardiac puncture to determine baseline lipid levels. The blood was allowed to clot and serum was obtained for the analysis of total cholesterol, dextran-precipitable lipoproteins cholesterol (VLDL +LDL) and total triglycerides. The rats were divided into groups so that each group had similar average baseline serum lipid levels. Five days after the initial blood sampling, administration of each test compound and the cholesterol-cholic acid-enriched diet was begun. Compounds to be tested by gavage were administered b.i.d. in 0.5% methyl cellulose at 9:00 a.m. and 3:00 p.m. for three days and at 9:00 a.m. on the fourth day. Compounds administered as part of the diet were dissolved in ethanol and sprayed on to the diet. The ethanol was allowed to evaporate and the diet given to the rats for three days. On the fourth day, blood samples were collected and the final serum lipid levels determined. All blood samplings were taken after a four-hour fast. […]

Regarding `CCCCCCCN(Cc1ccc(OCC(OC)OC)cc1)C(=O)Nc1ccc(OC)cc1OC` [Synthetic Example 1], in assay [1], 27 nM corresponded to half-maximal inhibition (IC50). Further, the “reduction of LDL-cholesterol” value in assay [2] (dose of 25 mg/kg) amounted to 78%; in assay [2] (dose of 50 mg/kg), 92%.

In general, IC50 refers to the concentration needed to halve the response being measured. A lower IC50 goes with inhibition by little substance.
